Assay results: PubChem BioAssay (NCI)
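Dose response: 5 concentrations. Exposure: 48 h. Format: 96-well plates. Endpoint: linear interpolation; highest concentration if not reached. TGI denotes the concentration required for complete inhibition of growth.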

Tests used:
Assay in all cases: NCI tumour cell line growth inhibition, 48 h
MDA-MB-435 = tested on: MDA-MB-435
MCF7 breast = tested on: MCF7 breast
NCI-H23 lung = tested on: NCI-H23 lung
LOX IMVI melanoma = tested on: LOX IMVI melanoma
786-0 renal = tested on: 786-0 renal
U251 CNS = tested on: U251 CNS
HOP-92 NSCLC = tested on: HOP-92 NSCLC
A498 renal = tested on: A498 renal
MDA-MB-231 breast = tested on: MDA-MB-231 breast
COLO 205 colon = tested on: COLO 205 colon
SF-539 CNS = tested on: SF-539 CNS
ACHN renal = tested on: ACHN renal
UACC-62 melanoma = tested on: UACC-62 melanoma
DU-145 prostate = tested on: DU-145 prostate
SK-OV-3 ovarian = tested on: SK-OV-3 ovarian
CCRF-CEM leukemia = tested on: CCRF-CEM leukemia
T-47D breast = tested on: T-47D breast
BT-549 breast = tested on: BT-549 breast
NCI-H522 lung = tested on: NCI-H522 lung
MALME-3M melanoma = tested on: MALME-3M melanoma
HS 578T breast = tested on: HS 578T breast
TK-10 renal = tested on: TK-10 renal
SK-MEL-2 melanoma = tested on: SK-MEL-2 melanoma
SK-MEL-5 melanoma = tested on: SK-MEL-5 melanoma
SW-620 colon = tested on: SW-620 colon
EKVX NSCLC = tested on: EKVX NSCLC
OVCAR-5 ovarian = tested on: OVCAR-5 ovarian
HOP-62 NSCLC = tested on: HOP-62 NSCLC
NCI/ADR-RES ovarian = tested on: NCI/ADR-RES ovarian
MOLT-4 leukemia = tested on: MOLT-4 leukemia
A549 NSCLC = tested on: A549 NSCLC
K-562 leukemia = tested on: K-562 leukemia
PC-3 prostate = tested on: PC-3 prostate
MDA-N = tested on: MDA-N
KM12 colon = tested on: KM12 colon
HCT-116 colon = tested on: HCT-116 colon
SF-268 CNS = tested on: SF-268 CNS
UACC-257 melanoma = tested on: UACC-257 melanoma
RPMI-8226 leukemia = tested on: RPMI-8226 leukemia
RXF 393 renal = tested on: RXF 393 renal
HCC-2998 colon = tested on: HCC-2998 colon
NCI-H460 lung = tested on: NCI-H460 lung
OVCAR-4 ovarian = tested on: OVCAR-4 ovarian
SN12C renal = tested on: SN12C renal
HL-60(TB) leukemia = tested on: HL-60(TB) leukemia
OVCAR-8 ovarian = tested on: OVCAR-8 ovarian
CAKI-1 renal = tested on: CAKI-1 renal
M14 melanoma = tested on: M14 melanoma
SK-MEL-28 melanoma = tested on: SK-MEL-28 melanoma
IGROV1 ovarian = tested on: IGROV1 ovarian
HCT-15 colon = tested on: HCT-15 colon
OVCAR-3 ovarian = tested on: OVCAR-3 ovarian
HT29 colon = tested on: HT29 colon
SNB-19 CNS = tested on: SNB-19 CNS
SF-295 CNS = tested on: SF-295 CNS
SNB-75 CNS = tested on: SNB-75 CNS
SR leukemia = tested on: SR leukemia
UO-31 renal = tested on: UO-31 renal
NCI-H226 lung = tested on: NCI-H226 lung

`CSc1cc(-c2cccs2)sc1-c1cc(SC)c(-c2sc(-c3sc(-c4cccs4)cc3SC)cc2SC)s1` showed a TGI (MDA-MB-435) of over 100 µM, a TGI (MCF7 breast) of over 100 µM and a TGI (NCI-H23 lung) of over 100 µM. The TGI (LOX IMVI melanoma) was over 100 µM, the TGI (786-0 renal) was over 100 µM and the TGI (U251 CNS) was over 100 µM. The TGI (HOP-92 NSCLC) was over 100 µM, the TGI (A498 renal) was over 100 µM and the TGI (MDA-MB-231 breast) was over 100 µM. For the same compound, the TGI (COLO 205 colon) was over 100 µM, the TGI (SF-539 CNS) was over 100 µM and the TGI (ACHN renal) was over 100 µM. The TGI (UACC-62 melanoma) was over 100 µM, the TGI (DU-145 prostate) was over 100 µM and the TGI (SK-OV-3 ovarian) was over 100 µM. It also gave a TGI (CCRF-CEM leukemia) of over 100 µM, a TGI (T-47D breast) of over 100 µM and a TGI (BT-549 breast) of over 100 µM. The TGI (NCI-H522 lung) was over 100 µM, the TGI (MALME-3M melanoma) was over 100 µM and the TGI (HS 578T breast) was over 100 µM. For the same compound, the TGI (TK-10 renal) was over 100 µM, the TGI (SK-MEL-2 melanoma) was over 100 µM and the TGI (SK-MEL-5 melanoma) was over 100 µM. For the same compound, the TGI (SW-620 colon) was over 100 µM, the TGI (EKVX NSCLC) was over 100 µM and the TGI (OVCAR-5 ovarian) was over 100 µM. For the same compound, the TGI (HOP-62 NSCLC) was over 100 µM, the TGI (NCI/ADR-RES ovarian) was over 100 µM and the TGI (MOLT-4 leukemia) was over 100 µM. It also gave a TGI (A549 NSCLC) of over 100 µM, a TGI (K-562 leukemia) of over 100 µM and a TGI (PC-3 prostate) of over 100 µM. The TGI (MDA-N) was over 100 µM, the TGI (KM12 colon) was over 100 µM and the TGI (HCT-116 colon) was over 100 µM. The TGI (SF-268 CNS) was over 100 µM, the TGI (UACC-257 melanoma) was over 100 µM and the TGI (RPMI-8226 leukemia) was over 100 µM. It also gave a TGI (RXF 393 renal) of over 100 µM, a TGI (HCC-2998 colon) of over 100 µM and a TGI (NCI-H460 lung) of over 100 µM. It also gave a TGI (OVCAR-4 ovarian) of over 100 µM, a TGI (SN12C renal) of over 100 µM and a TGI (HL-60(TB) leukemia) of over 100 µM. It also gave a TGI (OVCAR-8 ovarian) of over 100 µM, a TGI (CAKI-1 renal) of over 100 µM and a TGI (M14 melanoma) of over 100 µM. For the same compound, the TGI (SK-MEL-28 melanoma) was over 100 µM, the TGI (IGROV1 ovarian) was over 100 µM and the TGI (HCT-15 colon) was over 100 µM. It also gave a TGI (OVCAR-3 ovarian) of over 100 µM, a TGI (HT29 colon) of over 100 µM and a TGI (SNB-19 CNS) of over 100 µM. It also gave a TGI (SF-295 CNS) of over 100 µM.

For `CC(C)c1cc2c(c(O)c1O)[C@@]1(C(=O)O)CCCC(C)(C)[C@@H]1CC2`, the TGI (MDA-MB-435) was 34.5 µM, the TGI (MCF7 breast) was 45.2 µM and the TGI (NCI-H23 lung) was 46.9 µM. For the same compound, the TGI (LOX IMVI melanoma) was 53 µM, the TGI (786-0 renal) was over 100 µM and the TGI (U251 CNS) was 30.3 µM. The TGI (HOP-92 NSCLC) was 20.8 µM, the TGI (MDA-MB-231 breast) was 86.3 µM and the TGI (COLO 205 colon) was over 100 µM. For the same compound, the TGI (SF-539 CNS) was 38.8 µM, the TGI (ACHN renal) was 26.2 µM and the TGI (UACC-62 melanoma) was 30.8 µM. For the same compound, the TGI (DU-145 prostate) was over 100 µM, the TGI (SK-OV-3 ovarian) was over 100 µM and the TGI (CCRF-CEM leukemia) was 42.3 µM. For the same compound, the TGI (T-47D breast) was 55 µM, the TGI (BT-549 breast) was 28.7 µM and the TGI (SNB-75 CNS) was 34 µM. The TGI (NCI-H522 lung) was 25.8 µM, the TGI (HS 578T breast) was 67.8 µM and the TGI (TK-10 renal) was 31.5 µM. It also gave a TGI (SK-MEL-2 melanoma) of 41.6 µM, a TGI (SK-MEL-5 melanoma) of 47.2 µM and a TGI (SW-620 colon) of over 100 µM. The TGI (SR leukemia) was 33.7 µM, the TGI (EKVX NSCLC) was 30.8 µM and the TGI (OVCAR-5 ovarian) was 40 µM. It also gave a TGI (HOP-62 NSCLC) of 65.2 µM, a TGI (NCI/ADR-RES ovarian) of 31.3 µM and a TGI (UO-31 renal) of 27.4 µM. For the same compound, the TGI (MOLT-4 leukemia) was 37.2 µM, the TGI (NCI-H226 lung) was 29.4 µM and the TGI (A549 NSCLC) was 67.4 µM. It also gave a TGI (K-562 leukemia) of over 100 µM, a TGI (PC-3 prostate) of 33.9 µM and a TGI (MDA-N) of over 100 µM. For the same compound, the TGI (KM12 colon) was 27 µM, the TGI (HCT-116 colon) was over 100 µM and the TGI (SF-268 CNS) was 41.3 µM. The TGI (UACC-257 melanoma) was 33.4 µM, the TGI (RPMI-8226 leukemia) was 30.3 µM and the TGI (RXF 393 renal) was 66.7 µM. It also gave a TGI (HCC-2998 colon) of 28.8 µM, a TGI (NCI-H460 lung) of 50.9 µM and a TGI (OVCAR-4 ovarian) of over 100 µM. The TGI (SN12C renal) was 64.8 µM, the TGI (OVCAR-8 ovarian) was 30.1 µM and the TGI (CAKI-1 renal) was 51.8 µM. The TGI (SK-MEL-28 melanoma) was 29.8 µM, the TGI (IGROV1 ovarian) was 36.9 µM and the TGI (HCT-15 colon) was over 100 µM. It also gave a TGI (OVCAR-3 ovarian) of 57.3 µM, a TGI (HT29 colon) of 30.7 µM and a TGI (SF-295 CNS) of 68.5 µM.
